Measurements taken from ChEMBL document CHEMBL4507300 (2021).

How the values were obtained:
Conditions in all cases: Compound concentration 1000.0 nM
[1] = molecular target: Tyrosine-protein kinase JAK1 (Homo sapiens) (UniProt P23458)
[2] = molecular target: Inhibitor of nuclear factor kappa-B kinase subunit alpha (Homo sapiens) (UniProt O15111)
[3] = molecular target: Cyclin-dependent kinase 9 (Homo sapiens) (UniProt P50750)
[4] = molecular target: Serine/threonine-protein kinase NIM1 (Homo sapiens) (UniProt Q8IY84)
[5] = system: Receptor-type tyrosine-protein kinase FLT3 (Homo sapiens), P36888 [UNDEFINED MUTATION]
[6] = system: Tyrosine-protein kinase ABL1 (Homo sapiens), P00519 [E255K]
[7] = molecular target: Interleukin-1 receptor-associated kinase 4 (Homo sapiens) (UniProt Q9NWZ3)
[8] = molecular target: Serine/threonine-protein kinase 17A (Homo sapiens) (UniProt Q9UEE5)

Measured: residual activity

Receptor-type tyrosine-protein kinase FLT3 (Homo sapiens), P36888 [UNDEFINED MUTATION], sequence (P36888 whole entry, looked up, stated change not applied): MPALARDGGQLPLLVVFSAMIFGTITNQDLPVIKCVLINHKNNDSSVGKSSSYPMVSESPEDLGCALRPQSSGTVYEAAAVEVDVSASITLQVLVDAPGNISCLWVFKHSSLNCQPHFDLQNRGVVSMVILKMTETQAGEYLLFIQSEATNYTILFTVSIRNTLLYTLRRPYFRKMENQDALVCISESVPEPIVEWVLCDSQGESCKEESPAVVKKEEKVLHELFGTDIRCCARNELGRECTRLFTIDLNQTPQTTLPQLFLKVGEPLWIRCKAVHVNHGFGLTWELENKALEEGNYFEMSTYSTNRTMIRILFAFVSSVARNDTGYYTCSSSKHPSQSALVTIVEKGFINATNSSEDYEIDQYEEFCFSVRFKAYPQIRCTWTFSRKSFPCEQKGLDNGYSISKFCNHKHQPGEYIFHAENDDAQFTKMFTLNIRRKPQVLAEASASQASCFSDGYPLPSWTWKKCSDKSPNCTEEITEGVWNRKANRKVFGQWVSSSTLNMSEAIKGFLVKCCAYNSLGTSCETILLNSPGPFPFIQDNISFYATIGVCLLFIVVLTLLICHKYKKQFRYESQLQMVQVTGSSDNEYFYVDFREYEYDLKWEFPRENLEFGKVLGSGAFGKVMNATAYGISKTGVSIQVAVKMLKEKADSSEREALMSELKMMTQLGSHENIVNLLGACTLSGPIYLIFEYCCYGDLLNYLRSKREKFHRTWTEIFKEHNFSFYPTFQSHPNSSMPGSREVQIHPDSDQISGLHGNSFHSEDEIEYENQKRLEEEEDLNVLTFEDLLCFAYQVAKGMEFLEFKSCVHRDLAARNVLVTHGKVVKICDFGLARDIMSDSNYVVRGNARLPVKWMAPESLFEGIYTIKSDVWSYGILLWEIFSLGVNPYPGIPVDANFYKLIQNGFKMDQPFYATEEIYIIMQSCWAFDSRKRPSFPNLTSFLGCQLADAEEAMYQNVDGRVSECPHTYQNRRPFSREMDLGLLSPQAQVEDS
Cyclin-dependent kinase 9 (Homo sapiens), sequence (P50750 whole entry): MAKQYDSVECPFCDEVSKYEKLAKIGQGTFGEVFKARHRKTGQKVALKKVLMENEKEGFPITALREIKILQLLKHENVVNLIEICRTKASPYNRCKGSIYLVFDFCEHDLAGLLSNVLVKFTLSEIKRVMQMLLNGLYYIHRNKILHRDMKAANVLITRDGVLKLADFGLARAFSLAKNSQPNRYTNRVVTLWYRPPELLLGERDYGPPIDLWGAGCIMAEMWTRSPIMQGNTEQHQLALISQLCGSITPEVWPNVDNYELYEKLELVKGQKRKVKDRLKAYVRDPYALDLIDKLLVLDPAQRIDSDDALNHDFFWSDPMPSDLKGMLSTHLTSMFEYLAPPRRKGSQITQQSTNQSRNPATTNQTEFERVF
Serine/threonine-protein kinase NIM1 (Homo sapiens), sequence (Q8IY84 whole entry): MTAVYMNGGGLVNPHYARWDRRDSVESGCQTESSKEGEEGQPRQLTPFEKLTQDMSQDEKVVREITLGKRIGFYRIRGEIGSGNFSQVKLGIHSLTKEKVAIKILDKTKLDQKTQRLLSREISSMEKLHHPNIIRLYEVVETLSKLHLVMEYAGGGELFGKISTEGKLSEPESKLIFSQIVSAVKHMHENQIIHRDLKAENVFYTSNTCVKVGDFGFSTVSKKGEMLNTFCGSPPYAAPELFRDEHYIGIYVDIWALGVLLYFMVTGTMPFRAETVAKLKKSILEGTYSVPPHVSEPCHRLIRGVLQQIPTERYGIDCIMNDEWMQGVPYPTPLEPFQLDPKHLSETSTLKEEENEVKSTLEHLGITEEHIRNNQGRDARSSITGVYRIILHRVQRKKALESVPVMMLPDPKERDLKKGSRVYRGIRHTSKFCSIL
Serine/threonine-protein kinase 17A (Homo sapiens), sequence (Q9UEE5 whole entry): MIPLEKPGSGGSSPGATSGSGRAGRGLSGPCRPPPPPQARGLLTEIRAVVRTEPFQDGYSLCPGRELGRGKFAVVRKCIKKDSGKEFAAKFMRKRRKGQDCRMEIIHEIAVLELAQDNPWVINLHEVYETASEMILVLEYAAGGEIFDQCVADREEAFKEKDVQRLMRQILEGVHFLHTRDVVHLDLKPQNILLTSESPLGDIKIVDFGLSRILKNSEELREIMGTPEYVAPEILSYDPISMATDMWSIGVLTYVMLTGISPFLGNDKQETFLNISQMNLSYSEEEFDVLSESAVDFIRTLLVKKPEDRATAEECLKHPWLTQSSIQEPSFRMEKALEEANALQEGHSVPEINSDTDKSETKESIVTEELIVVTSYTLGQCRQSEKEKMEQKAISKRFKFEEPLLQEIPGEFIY
Tyrosine-protein kinase JAK1 (Homo sapiens), sequence (P23458 whole entry): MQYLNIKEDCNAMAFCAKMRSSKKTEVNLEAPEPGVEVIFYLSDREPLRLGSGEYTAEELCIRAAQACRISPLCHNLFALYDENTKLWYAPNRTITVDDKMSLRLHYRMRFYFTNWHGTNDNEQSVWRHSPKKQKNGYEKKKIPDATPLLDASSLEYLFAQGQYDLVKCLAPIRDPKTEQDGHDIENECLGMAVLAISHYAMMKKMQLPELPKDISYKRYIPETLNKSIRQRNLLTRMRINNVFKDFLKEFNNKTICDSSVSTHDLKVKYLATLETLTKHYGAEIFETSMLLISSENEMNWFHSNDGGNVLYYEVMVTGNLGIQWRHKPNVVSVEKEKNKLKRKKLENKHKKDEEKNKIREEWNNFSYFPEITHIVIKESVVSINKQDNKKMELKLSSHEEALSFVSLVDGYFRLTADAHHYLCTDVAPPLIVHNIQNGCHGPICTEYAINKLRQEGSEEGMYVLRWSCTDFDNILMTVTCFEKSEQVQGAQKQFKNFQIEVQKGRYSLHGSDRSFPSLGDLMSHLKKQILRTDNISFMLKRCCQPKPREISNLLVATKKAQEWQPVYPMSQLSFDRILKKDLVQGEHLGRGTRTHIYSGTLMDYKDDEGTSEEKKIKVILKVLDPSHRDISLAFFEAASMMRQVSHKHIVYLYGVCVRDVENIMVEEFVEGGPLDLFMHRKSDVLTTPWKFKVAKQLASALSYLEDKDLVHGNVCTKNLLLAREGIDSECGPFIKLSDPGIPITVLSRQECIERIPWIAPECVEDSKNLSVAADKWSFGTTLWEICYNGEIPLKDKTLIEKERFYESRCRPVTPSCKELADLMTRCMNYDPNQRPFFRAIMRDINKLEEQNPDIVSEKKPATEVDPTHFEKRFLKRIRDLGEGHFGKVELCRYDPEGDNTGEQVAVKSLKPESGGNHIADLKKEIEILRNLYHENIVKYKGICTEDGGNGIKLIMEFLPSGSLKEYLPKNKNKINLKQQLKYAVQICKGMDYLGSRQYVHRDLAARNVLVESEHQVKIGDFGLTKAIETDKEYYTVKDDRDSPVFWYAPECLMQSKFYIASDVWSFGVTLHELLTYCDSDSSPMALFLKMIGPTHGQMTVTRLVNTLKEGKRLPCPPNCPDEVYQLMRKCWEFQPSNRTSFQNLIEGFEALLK
Inhibitor of nuclear factor kappa-B kinase subunit alpha (Homo sapiens), sequence (O15111 whole entry): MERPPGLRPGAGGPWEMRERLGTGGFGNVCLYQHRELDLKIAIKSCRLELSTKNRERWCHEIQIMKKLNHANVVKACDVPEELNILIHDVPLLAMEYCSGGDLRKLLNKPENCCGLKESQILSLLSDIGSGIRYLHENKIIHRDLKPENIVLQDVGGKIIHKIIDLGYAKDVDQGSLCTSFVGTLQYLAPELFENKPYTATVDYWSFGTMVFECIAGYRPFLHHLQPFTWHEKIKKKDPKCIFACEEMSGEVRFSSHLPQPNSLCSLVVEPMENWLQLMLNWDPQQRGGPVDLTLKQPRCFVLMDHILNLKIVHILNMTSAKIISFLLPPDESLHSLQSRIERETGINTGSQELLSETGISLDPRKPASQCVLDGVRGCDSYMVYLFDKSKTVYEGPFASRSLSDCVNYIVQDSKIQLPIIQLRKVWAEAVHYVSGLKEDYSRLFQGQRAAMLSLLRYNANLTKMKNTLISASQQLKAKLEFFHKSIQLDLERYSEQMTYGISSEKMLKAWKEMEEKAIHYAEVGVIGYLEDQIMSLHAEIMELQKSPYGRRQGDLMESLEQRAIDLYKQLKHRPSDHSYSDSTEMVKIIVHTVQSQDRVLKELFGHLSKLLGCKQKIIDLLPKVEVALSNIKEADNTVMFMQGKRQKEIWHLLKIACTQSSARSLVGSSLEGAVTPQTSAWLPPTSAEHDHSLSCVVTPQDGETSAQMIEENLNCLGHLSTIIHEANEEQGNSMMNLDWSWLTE
Interleukin-1 receptor-associated kinase 4 (Homo sapiens), sequence (Q9NWZ3 whole entry): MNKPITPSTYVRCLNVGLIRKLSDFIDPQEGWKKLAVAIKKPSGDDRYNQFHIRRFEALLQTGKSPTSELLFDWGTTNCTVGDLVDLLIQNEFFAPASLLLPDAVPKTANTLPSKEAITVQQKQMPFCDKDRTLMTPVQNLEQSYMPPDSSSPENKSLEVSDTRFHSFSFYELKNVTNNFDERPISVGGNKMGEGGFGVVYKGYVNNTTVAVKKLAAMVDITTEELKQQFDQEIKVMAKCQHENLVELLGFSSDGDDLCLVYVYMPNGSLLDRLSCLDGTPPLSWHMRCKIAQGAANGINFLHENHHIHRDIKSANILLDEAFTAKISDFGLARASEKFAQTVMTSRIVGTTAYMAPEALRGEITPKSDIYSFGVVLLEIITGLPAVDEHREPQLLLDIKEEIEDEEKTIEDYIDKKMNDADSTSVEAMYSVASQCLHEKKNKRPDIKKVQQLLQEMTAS

COc1cccc(CNC(=O)c2nc3scc(COCc4ccc(C(=O)O)cc4)c3c(=O)[nH]2)c1 [T-26c]
inactive: [1] 76% | [2] 64.8% | [3] 78.6% | [4] 100% | [5] 63% | [6] 83% | [7] 85% | [8] 73.1%
